We go through four compounds from patent US20100035756A1, “TRIAZOLOPHYRIDINE DERIVATIVES AS HERBICIDES” (SYNGENTA LIMITED, priority 2006, published 2010).

Holding throughout (format): in vivo
The test system of assay [1] is Monocotyledonous and dicotyledonous test plants. Briefly: Herbicidal action prior to emergence of the plants (pre-emergence action), Example B1. The settings on record: preemergence application, 250 g/ha, evaluated after 4 weeks, 100%=total damage, 0%=no damage. In a few lines: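 Monocot and dicot species were sown in standard soil and sprayed pre-emergence, right after sowing, at 250 g/ha as an aqueous suspension or emulsion. Plants were grown in a greenhouse for 4 weeks. Damage was scored from 0% (none) to 100% (total).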

Assay [2] has the same test system. Briefly: Herbicidal action after emergence of the plants (post-emergence herbicidal action), Example B2. The settings on record: postemergent application, 125 g/ha, 2- to 3-leaf stage, evaluated after 2-3 weeks, 100%=total damage. Summed up: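 Sprayed at 2- to 3-leaf stage as aqueous suspension (wettable powder) or emulsion (emulsifiable concentrate) at 125 g/ha; plants grown on in greenhouse. Damage scored after 2–3 weeks (100% = total damage, 0% = none).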

Assay [3] has as its system Nasturtium officinale. Briefly: Microscreen (pre-emergence), Example B3. The settings on record: preemergent application, 250 g/ha, evaluated 8 days later, 100%=total damage.
In assay [4] the test system is Agrostis tenuis. Briefly: Microscreen (pre-emergence), Example B3. The settings on record: preemergent application, 250 g/ha, evaluated 8 days later, 100%=total damage.
For assay [5], the system named is Stellaria media. Briefly: Microscreen (pre-emergence), Example B3. The settings on record: preemergent application, 250 g/ha, evaluated 8 days later, 100%=total damage.
For assay [6], the system named is Digitaria sanguinalis. Briefly: Microscreen (pre-emergence), Example B3. The settings on record: preemergent application, 250 g/ha, evaluated 8 days later, 100%=total damage.
The subject of assay [7] is Solanum nigrum. Briefly: Microscreen (pre-emergence), Example B3. The settings on record: preemergent application, 250 g/ha, evaluated 8 days later, 100%=total damage.
For assay [8], the system named is Amaranthus retroflexus. Briefly: Microscreen (pre-emergence), Example B3. The settings on record: preemergent application, 250 g/ha, evaluated 8 days later, 100%=total damage.
Assay [9] has as its system Setaria italica. Briefly: Microscreen (pre-emergence), Example B3. The settings on record: preemergent application, 250 g/ha, evaluated 8 days later, 100%=total damage.

Consider `Cc1nnc2c(C(=O)C3C(=O)C4CCC(C4)C3=O)ccc(C(F)(F)F)n12` (centres unmarked) [Compound 1.4, 3-(3-Methyl-5-trifluoromethyl-[1,2,4]triazolo[4,3-a]pyridine-8-carbonyl)-bicyclo[3.2.1]octane-2,4-dione], for which, in assay [1], the “herbicidal damage, ABUTH” value came to 100%; the “herbicidal damage, AMARE” value was found to be 100%; the “herbicidal damage, BRAPL” value is reported as 70%; the “herbicidal damage, DIGSA” value amounted to 100%. Further, in assay [1], the “herbicidal damage, ECHCG” value came to 90%; the “herbicidal damage, SETFA” value turned out to be 90%; the “herbicidal damage, STEME” value was determined as 100%; the “herbicidal damage, VERPE” value stood at 100%. In assay [2], the “herbicidal damage, ABUTH” value is given as 70%; the “herbicidal damage, AMARE” value is recorded as 70%; the “herbicidal damage, CHEAL” value stood at 90%; the “herbicidal damage, DIGSA” value is 80%. Further, in [2], the “herbicidal damage, SETFA” value amounted to 90%; the “herbicidal damage, SINAR” value is recorded as 80%; the “herbicidal damage, VERPE” value was 80%; the “herbicidal damage, XANST” value stood at 70%. In assay [3], the “herbicidal damage, Nasturtium” value was 90%. In assay [4], the “herbicidal damage, Agrostis” value is 50%. In assay [5], the “herbicidal damage, Stellaria” value came to 80%. Also, the “herbicidal damage, Digitaria” value in [6] was found to be 90%. For the same compound, in assay [7], the “herbicidal damage, Solanum” value is on record as 90%. The “herbicidal damage, Amaranthus” value in [8] turned out to be 90%. For the same compound, in [9], the “herbicidal damage, Setaria” value is reported as 70%.
On to `Cc1nnc2c(C(=O)C3=C(O)CCCC3=O)ccc(C(F)(F)F)n12` [Compound 3.4], for which, in assay [1], the “herbicidal damage, ABUTH” value came to 80%; the “herbicidal damage, AMARE” value is 60%; the “herbicidal damage, BRAPL” value is given as 80%; the “herbicidal damage, DIGSA” value was 70%. In addition, in [1], the “herbicidal damage, ECHCG” value is 70%; the “herbicidal damage, SETFA” value came out at 30%; the “herbicidal damage, STEME” value is given as 30%; the “herbicidal damage, VERPE” value was found to be 50%. Moreover, in assay [2], the “herbicidal damage, ABUTH” value is on record as 90%; the “herbicidal damage, AMARE” value was 80%; the “herbicidal damage, CHEAL” value turned out to be 60%; the “herbicidal damage, DIGSA” value amounted to 80%. Moreover, in assay [2], the “herbicidal damage, SETFA” value is 80%; the “herbicidal damage, SINAR” value is listed as 90%; the “herbicidal damage, VERPE” value came to 100%; the “herbicidal damage, XANST” value is reported as 80%. Besides, in assay [3], the “herbicidal damage, Nasturtium” value is given as 80%. In [4], the “herbicidal damage, Agrostis” value is listed as 100%. The “herbicidal damage, Stellaria” value in assay [5] is recorded as 70%. The “herbicidal damage, Digitaria” value in assay [6] worked out at 100%. Further, the “herbicidal damage, Solanum” value in assay [7] is 0%. Also, the “herbicidal damage, Amaranthus” value in [8] was found to be 80%. In addition, the “herbicidal damage, Setaria” value in assay [9] came out at 60%.
On to `Cc1nnc2c(C(=O)C3=C(O)C(C)(C)C(=O)C(C)(C)C3=O)ccc(C(F)(F)F)n12` [Compound 5.3], for which, in [1], the “herbicidal damage, ABUTH” value was 100%; the “herbicidal damage, AMARE” value worked out at 100%; the “herbicidal damage, BRAPL” value was found to be 70%; the “herbicidal damage, DIGSA” value amounted to 100%. For the same compound, in assay [1], the “herbicidal damage, ECHCG” value was 100%; the “herbicidal damage, SETFA” value was found to be 60%; the “herbicidal damage, STEME” value turned out to be 100%; the “herbicidal damage, VERPE” value turned out to be 100%. Further, in assay [2], the “herbicidal damage, ABUTH” value is 80%; the “herbicidal damage, AMARE” value is listed as 70%; the “herbicidal damage, CHEAL” value is given as 80%; the “herbicidal damage, DIGSA” value is recorded as 50%. In assay [2], the “herbicidal damage, SETFA” value is on record as 50%; the “herbicidal damage, SINAR” value is listed as 80%; the “herbicidal damage, VERPE” value worked out at 90%; the “herbicidal damage, XANST” value was 90%. The “herbicidal damage, Nasturtium” value in assay [3] came out at 100%. Further, in assay [4], the “herbicidal damage, Agrostis” value is on record as 50%. Besides, in assay [5], the “herbicidal damage, Stellaria” value is on record as 90%. In assay [6], the “herbicidal damage, Digitaria” value was found to be 100%. For the same compound, the “herbicidal damage, Solanum” value in [7] worked out at 100%. For the same compound, the “herbicidal damage, Amaranthus” value in assay [8] is on record as 100%. In addition, the “herbicidal damage, Setaria” value in assay [9] is 50%.
In the case of `CCc1nnc2c(C(=O)C3=C(O)C4CCC(C4)C3=O)ccc(C(F)(F)F)n12` (centres unmarked) [Compound 1.5], in assay [1], the “herbicidal damage, ABUTH” value is listed as 100%; the “herbicidal damage, AMARE” value turned out to be 100%; the “herbicidal damage, BRAPL” value was determined as 60%; the “herbicidal damage, DIGSA” value is given as 100%. Further, in assay [1], the “herbicidal damage, ECHCG” value came to 60%; the “herbicidal damage, SETFA” value was found to be 80%; the “herbicidal damage, STEME” value worked out at 100%; the “herbicidal damage, VERPE” value amounted to 70%. In [2], the “herbicidal damage, ABUTH” value stood at 90%; the “herbicidal damage, AMARE” value was 70%; the “herbicidal damage, CHEAL” value is recorded as 80%; the “herbicidal damage, DIGSA” value was found to be 70%. In addition, in [2], the “herbicidal damage, SETFA” value came out at 60%; the “herbicidal damage, SINAR” value amounted to 80%; the “herbicidal damage, VERPE” value is on record as 70%; the “herbicidal damage, XANST” value worked out at 80%. In addition, the “herbicidal damage, Nasturtium” value in assay [3] turned out to be 80%. For the same compound, the “herbicidal damage, Agrostis” value in assay [4] turned out to be 100%. Further, the “herbicidal damage, Stellaria” value in [5] amounted to 60%. Moreover, the “herbicidal damage, Digitaria” value in assay [6] turned out to be 80%. For the same compound, the “herbicidal damage, Solanum” value in assay [7] is listed as 100%. In addition, the “herbicidal damage, Amaranthus” value in assay [8] was found to be 30%. Also, the “herbicidal damage, Setaria” value in assay [9] stood at 50%.
